From US20250302832A1, “PYRAZINE DERIVATIVES AND USES THEREOF” (FOGHORN THERAPEUTICS INC., priority 2022, published 2025)

Columns and labels:
HiBit-BRM fusion protein = biological target: T1, HiBit-BRM fusion protein (Homo sapiens, UniProt P51531); assay: HiBiT-BRM cell-based degradation assay (Nano-Glo HiBiT lytic detection, 24 h); conditions: HeLa cell line expressing HiBiT-BRM; for DC50: read-out: BRM HiBit Degradation IC50
T1 construct: expressed in transfected cells
Summary of the method: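 Luminescence from LgBiT complementation quantified remaining HiBiT-BRM in stably expressing HeLa cells after 24 h compound exposure (top final dose 30 μM, 3-fold, 10 points, duplicate). Degradation expressed as percent relative to DMSO and a 2 μM reference degrader.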

[1] = biological target: T2, HiBit-BRG1 fusion protein (Homo sapiens, UniProt P51532); assay: HiBiT-BRG1 cell-based degradation assay (Nano-Glo HiBiT lytic detection, 24 h); conditions: HeLa cell line expressing HiBit-BRG1 and LgBit; for Dmax: read-out: BRG1 HiBit Degradation Maximum (%); for DC50: read-out: BRMG1 HiBit Degradation IC50
T2 construct: expressed in transfected cells
T2 sequence (P51532 whole entry, the tested form may be a part): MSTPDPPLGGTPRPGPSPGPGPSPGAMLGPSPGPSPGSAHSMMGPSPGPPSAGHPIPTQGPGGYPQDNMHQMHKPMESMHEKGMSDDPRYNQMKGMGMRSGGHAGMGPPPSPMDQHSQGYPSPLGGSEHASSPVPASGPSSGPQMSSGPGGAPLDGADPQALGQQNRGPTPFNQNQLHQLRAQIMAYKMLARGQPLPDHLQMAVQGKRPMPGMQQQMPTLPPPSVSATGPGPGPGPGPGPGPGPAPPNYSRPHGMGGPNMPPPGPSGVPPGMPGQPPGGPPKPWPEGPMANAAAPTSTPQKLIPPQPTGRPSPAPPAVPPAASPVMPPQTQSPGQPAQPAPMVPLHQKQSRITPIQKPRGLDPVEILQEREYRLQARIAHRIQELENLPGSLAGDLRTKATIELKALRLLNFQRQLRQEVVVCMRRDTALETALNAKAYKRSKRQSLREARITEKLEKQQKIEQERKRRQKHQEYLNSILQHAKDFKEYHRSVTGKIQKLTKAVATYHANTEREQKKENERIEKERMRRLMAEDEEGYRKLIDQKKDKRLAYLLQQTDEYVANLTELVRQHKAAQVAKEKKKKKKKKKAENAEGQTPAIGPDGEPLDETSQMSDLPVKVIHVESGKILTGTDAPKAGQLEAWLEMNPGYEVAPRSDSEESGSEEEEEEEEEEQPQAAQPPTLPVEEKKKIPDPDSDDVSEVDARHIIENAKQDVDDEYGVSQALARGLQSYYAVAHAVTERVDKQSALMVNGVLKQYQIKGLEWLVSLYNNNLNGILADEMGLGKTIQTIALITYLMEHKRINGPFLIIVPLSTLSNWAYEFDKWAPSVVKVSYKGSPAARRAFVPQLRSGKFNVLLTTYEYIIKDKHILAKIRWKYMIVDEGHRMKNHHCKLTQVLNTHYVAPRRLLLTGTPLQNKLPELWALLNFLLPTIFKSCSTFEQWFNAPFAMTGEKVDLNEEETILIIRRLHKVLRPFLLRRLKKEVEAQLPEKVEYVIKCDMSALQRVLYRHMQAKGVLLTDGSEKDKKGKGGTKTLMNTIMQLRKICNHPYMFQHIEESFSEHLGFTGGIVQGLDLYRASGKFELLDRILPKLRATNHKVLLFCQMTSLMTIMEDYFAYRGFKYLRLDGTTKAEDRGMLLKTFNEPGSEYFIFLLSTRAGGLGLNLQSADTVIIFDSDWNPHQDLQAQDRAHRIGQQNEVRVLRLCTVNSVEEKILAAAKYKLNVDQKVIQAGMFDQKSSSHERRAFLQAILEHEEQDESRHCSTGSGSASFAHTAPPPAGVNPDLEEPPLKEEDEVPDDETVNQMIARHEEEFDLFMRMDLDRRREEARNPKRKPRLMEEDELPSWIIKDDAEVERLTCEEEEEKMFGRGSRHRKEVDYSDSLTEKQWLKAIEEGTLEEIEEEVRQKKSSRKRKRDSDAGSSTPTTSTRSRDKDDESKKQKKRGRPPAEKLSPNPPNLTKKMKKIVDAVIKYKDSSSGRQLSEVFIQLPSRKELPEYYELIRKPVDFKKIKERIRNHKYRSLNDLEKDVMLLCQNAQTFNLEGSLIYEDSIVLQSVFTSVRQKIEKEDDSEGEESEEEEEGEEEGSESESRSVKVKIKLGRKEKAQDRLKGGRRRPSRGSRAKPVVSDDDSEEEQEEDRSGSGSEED
Summary of the method: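 Luminescence from HiBiT/LgBiT complementation after lytic detection reagent was read following 24 h compound exposure of HeLa cells stably carrying HiBiT-BRG1 plus LgBiT (5000 cells/well). Signal scaled to % degradation using DMSO-treated cells as 0% and cells given 2 μM known BRM/BRG1 degrader as 100%.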

T1 sequence (P51531 whole entry, the tested form may be a part): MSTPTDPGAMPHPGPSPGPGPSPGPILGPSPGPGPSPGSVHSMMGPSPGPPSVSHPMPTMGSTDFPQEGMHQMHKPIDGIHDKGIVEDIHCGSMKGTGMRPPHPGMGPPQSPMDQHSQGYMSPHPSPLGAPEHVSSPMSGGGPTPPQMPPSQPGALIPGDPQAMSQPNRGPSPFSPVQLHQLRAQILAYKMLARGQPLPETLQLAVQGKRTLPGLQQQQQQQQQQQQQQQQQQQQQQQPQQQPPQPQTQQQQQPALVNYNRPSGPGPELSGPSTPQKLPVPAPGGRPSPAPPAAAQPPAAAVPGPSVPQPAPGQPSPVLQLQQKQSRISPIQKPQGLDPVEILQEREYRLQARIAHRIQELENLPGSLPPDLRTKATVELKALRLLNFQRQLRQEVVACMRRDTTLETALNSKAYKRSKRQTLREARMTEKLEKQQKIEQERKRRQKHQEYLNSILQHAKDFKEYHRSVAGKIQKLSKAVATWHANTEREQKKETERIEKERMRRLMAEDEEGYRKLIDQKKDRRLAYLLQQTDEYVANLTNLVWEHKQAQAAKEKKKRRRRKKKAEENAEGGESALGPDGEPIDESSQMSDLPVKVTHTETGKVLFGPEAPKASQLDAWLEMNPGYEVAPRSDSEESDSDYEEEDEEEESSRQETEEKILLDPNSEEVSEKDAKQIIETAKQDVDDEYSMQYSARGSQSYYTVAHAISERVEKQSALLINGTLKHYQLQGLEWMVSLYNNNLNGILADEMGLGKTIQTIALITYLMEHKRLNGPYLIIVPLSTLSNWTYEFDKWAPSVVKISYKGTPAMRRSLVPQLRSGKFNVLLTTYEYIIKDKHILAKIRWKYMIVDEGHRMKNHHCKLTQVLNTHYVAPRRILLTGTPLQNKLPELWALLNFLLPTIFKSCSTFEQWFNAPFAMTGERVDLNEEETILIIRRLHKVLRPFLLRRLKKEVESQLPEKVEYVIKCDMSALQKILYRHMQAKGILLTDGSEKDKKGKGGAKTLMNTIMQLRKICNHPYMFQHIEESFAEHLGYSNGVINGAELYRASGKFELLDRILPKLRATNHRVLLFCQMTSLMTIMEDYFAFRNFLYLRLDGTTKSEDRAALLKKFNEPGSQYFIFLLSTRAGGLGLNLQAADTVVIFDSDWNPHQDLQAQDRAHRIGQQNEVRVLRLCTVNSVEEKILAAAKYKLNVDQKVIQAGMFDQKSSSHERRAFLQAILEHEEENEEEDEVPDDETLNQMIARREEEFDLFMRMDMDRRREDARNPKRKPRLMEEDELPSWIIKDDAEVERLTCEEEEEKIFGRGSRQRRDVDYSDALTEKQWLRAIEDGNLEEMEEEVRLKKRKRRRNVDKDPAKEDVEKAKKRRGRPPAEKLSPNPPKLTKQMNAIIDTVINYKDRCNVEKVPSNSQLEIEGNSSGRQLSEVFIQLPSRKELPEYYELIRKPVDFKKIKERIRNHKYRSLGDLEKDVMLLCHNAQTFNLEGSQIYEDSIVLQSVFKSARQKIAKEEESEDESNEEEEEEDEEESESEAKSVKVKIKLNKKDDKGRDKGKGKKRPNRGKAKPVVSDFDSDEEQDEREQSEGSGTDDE

Structure (SMILES) | BRM HiBit Degradation Maximum (%) (HiBit-BRM fusion protein) | DC50 (HiBit-BRM fusion protein) [nM] | Dmax [1] [%] | DC50 [1] [nM]
Cc1ncsc1-c1ccc([C@H](C)NC(=O)[C@@H]2C[C@@H](O)CN2C(=O)[C@@H](c2cc(N3CC[C@@H](c4cc5nnc(-c6ccccc6O)cc5n4C4CCC4)C3)no2)C(C)C)cc1 [Compound 88, (2S,4R)-1-((R)-2-(3-((R)-3-(5-cyclobutyl-3-(2-hydroxyphenyl)-5H-pyrrolo[3,2-c]pyridazin-6-yl)pyrrolidin-1-yl)isoxazol-5-yl)-3-methylbutanoyl)-4-hydroxy-N-((S)-1-(4-(4-methylthiazol-5-yl)phenyl)ethyl)pyrrolidine-2-carboxamide] | A (“A” indicates maximum degradation ≥75%) | < 10 | > 75 | > 10
Cc1ncsc1-c1ccc(CNC(=O)[C@@H]2C[C@@H](O)CN2C(=O)[C@@H](c2cc(-c3cnc(N4CC[C@@H](c5cc6nnc(-c7ccccc7O)cc6n5C5CC5)C4)nc3)no2)C(C)C)cc1 [Compound 89, (2S,4R)-1-((R)-2-(3-(2-((R)-3-(5-cyclopropyl-3-(2-hydroxyphenyl)-5H-pyrrolo[3,2-c]pyridazin-6-yl)pyrrolidin-1-yl)pyrimidin-5-yl)isoxazol-5-yl)-3-methylbutanoyl)-4-hydroxy-N-(4-(4-methylthiazol-5-yl)benzyl)pyrrolidine-2-carboxamide] | A (“A” indicates maximum degradation ≥75%) | > 10 | > 50 | > 10
Cc1ncsc1-c1ccc(CNC(=O)[C@@H]2C[C@@H](O)CN2C(=O)[C@@H](c2cc(-c3cnc(N4CC[C@H](c5cc6nnc(-c7ccccc7O)cc6n5C5CC5)C4)nc3)no2)C(C)C)cc1 [Compound 90, (2S,4R)-1-((R)-2-(3-(2-((S)-3-(5-cyclopropyl-3-(2-hydroxyphenyl)-5H-pyrrolo[3,2-c]pyridazin-6-yl)pyrrolidin-1-yl)pyrimidin-5-yl)isoxazol-5-yl)-3-methylbutanoyl)-4-hydroxy-N-(4-(4-methylthiazol-5-yl)benzyl)pyrrolidine-2-carboxamide] | A (“A” indicates maximum degradation ≥75%) | < 10 | < 50 | –
CC(C)[C@@H](C(=O)N1C[C@H](O)C[C@H]1C(=O)N[C@@H](C)c1ccc(F)cc1)c1cc(-c2cnc(N3CC[C@H](c4cc5nnc(-c6ccccc6O)cc5n4C4CC4)C3)nc2)no1 [Compound 92, (2S,4R)-1-((R)-2-(3-(2-((S)-3-(5-cyclopropyl-3-(2-hydroxyphenyl)-5H-pyrrolo[3,2-c]pyridazin-6-yl)pyrrolidin-1-yl)pyrimidin-5-yl)isoxazol-5-yl)-3-methylbutanoyl)-N-((S)-1-(4-fluorophenyl)ethyl)-4-hydroxypyrrolidine-2-carboxamide] | A (“A” indicates maximum degradation ≥75%) | < 10 | < 50 | –
CC(C)[C@@H](C(=O)N1C[C@H](O)C[C@H]1C(=O)N[C@@H](C)c1ccccc1)c1cc(-c2cnc(N3CC[C@H](c4cc5nnc(-c6ccccc6O)cc5n4C4CC4)C3)nc2)no1 [Compound 93, (2S,4R)-1-((R)-2-(3-(2-((S)-3-(5-cyclopropyl-3-(2-hydroxyphenyl)-5H-pyrrolo[3,2-c]pyridazin-6-yl)pyrrolidin-1-yl)pyrimidin-5-yl)isoxazol-5-yl)-3-methylbutanoyl)-4-hydroxy-N-((S)-1-phenylethyl)pyrrolidine-2-carboxamide] | A (“A” indicates maximum degradation ≥75%) | < 10 | < 50 | –
